Experimental data as given in US20210318318A1, “Kinase Activity In Tumors” (Institute For Cancer Research d/b/a The Research Institute …, priority 2018, published 2021).

Assays:
COV362 = assay: Short-term growth assay (CellTiter-Glo cell viability), kinase inhibitors; assay type: cell-based, human; conditions: increasing concentrations, Cell Titer Glo
Procedure: Cell viability was determined by Cell Titer Glo analysis.
COV362 cells were treated with increasing concentrations of A-674563 and cell viability assessed by Cell Titer Glo according to manufacturer's instructions. Data represent the mean of six replicates.
To explore the therapeutic potential of the HGSOC kinome signature, a detailed molecular analysis of protein levels/activity, growth and survival functions was carried out in a panel of recently validated HGSOC cell lines (Coscia et al., Nat. Commun., 2016, 7, 12645) that harbor commonly encountered HGSOC mutations and genetic rearrangements (see, FIG. 5A).
For short-term growth assays, 3000-5000 cells were plated per well in 96-well plates and allowed to adhere and equilibrate overnight. Drug was added the following morning and after 120 hours of drug treatment, cell viability was assessed using the CellTiter-Glo Luminescent cell viability assay according to manufacturer (Promega). Students t tests were performed for statistical analyses and p values ≤0.05 were considered significant. For colony formation assays, cells were plated in 24-well dishes (3000-5000 cells per well) and incubated overnight before continuous drug treatment for 14 days, with drug and media replaced twice weekly. At the end of treatment, cells were rinsed with PBS and fixed with chilled methanol for 10 minutes at −20° C. Methanol was removed by aspiration, and cells were stained with 0.5% crystal violet in 20% methanol for 20 minutes at room temperature, washed with distilled water, and scanned.

AAK1 = biological target: T1, AAK1 (Homo sapiens, UniProt Q2M2I8); assay: MIB/MS kinome profiling of inhibitor-treated OVSAHO cells; assay type: cell-based; conditions: 2 μM, 4 hours
T1 construct: endogenous in cells; host or cells: OVSAHO
Procedure: (§1) OVSAHO cells were treated with 2 μM of inhibitor for 4 hours and analyzed by MIB/MS. Scatterplot depicts difference in kinase MIB-binding of drug treated relative to control DMSO as determined by Students T-test.
(§2) MIB-based kinome profiling was performed on several of these molecules in HGSOC cells to determine kinome-wide inhibition profiles.
(§3) Experiments using MIB/MS were performed as previously described (Duncan et al., Cell, 2012, 149, 307-321; and Kurimchak et al., Cell Reports, 2016, 16, 1273-1286). Briefly, cells or tumors were lysed on ice in buffer containing 50 mM HEPES (pH 7.5), 0.5% Triton X-100, 150 mM NaCl, 1 mM EDTA, 1 mM EGTA, 10 mM sodium fluoride, 2.5 mM sodium orthovanadate, 1× protease inhibitor cocktail (Roche), and 1% each of phosphatase inhibitor cocktails 2 and 3 (Sigma). Particulate was removed by centrifugation of lysates at 13,000 rpm for 10 minutes at 4° C. and filtration through 0.2 μm syringe filters. Protein concentrations were determined by BCA analysis (Thermo). To compare kinome signatures within and across such large sample sizes, a super-SILAC method was designed (Neubert et al., Nat. Meth., 2010, 7, 361-362) consisting of a cocktail of cancer cell lines that encompasses the activity of the “cancer kinome” to be used as a control for individual samples. Five cancer cell lines were selected from the NCI-60 panel (UACC257, MOLT4, COL0205, ACHN and PC3) that differed in their origin, gene expression patterns and mutation status. The cancer cell lines were labeled using SILAC and mixed equally providing a diverse SILAC ([^13C6,^15N4] arginine (Arg^10) and […] (Lys^8)) heavy kinome reference standard (HKS) to be used repeatedly in kinome profiling assays. An equal amount of the HKS was added to the non-labeled sample (cell, tumor or normal tissue) providing a quantitative strategy to compare kinome activity/levels across samples, amongst treatments and, importantly, across time. Endogenous kinases were isolated by flowing lysates over kinase inhibitor-conjugated Sepharose beads (purvalanol B, VI16832, PP58 and CTx-0294885 beads were used) in 10 ml gravity-flow columns. After 2×10 ml column washes in high-salt buffer and 1×10 ml wash in low-salt buffer (containing 50 mM HEPES (pH 7.5), 0.5% Triton X-100, 1 mM EDTA, 1 mM EGTA, and 10 mM sodium fluoride, and 1M NaCl or 150 mM NaCl, respectively), retained kinases were eluted from the column by boiling in 2×500 μL of 0.5% SDS, 0.1 M TrisHCl (pH 6.8), and 1% 2-mercaptoethanol. Eluted peptides were reduced by incubation with 5 mM DTT at 60° C. for 25 minutes, alkylated with 20 mM iodoacetamide at room temperature for 30 minutes in the dark and alkylation was quenched with DTT. Samples were concentrated to approximately 100 μL with Millipore 10 kD cutoff spin concentrators. Detergent was removed by chloroform/methanol extraction, and the protein pellet was resuspended in 100 mM ammonium bicarbonate and digested with sequencing-grade modified trypsin (Promega) overnight at 37° C. […]
(§4) Proteolytic peptides were resuspended in 0.1% formic acid and separated with a Thermo RSLC Ultimate 3000 on a Thermo Easy-Spray C18 PepMap 75 μm×50 cm C-18 2 μm column with a 240 minute gradient of 4-25% acetonitrile with 0.1% formic acid at 300 nL/min and 50° C. Eluted peptides were analyzed by a Thermo Q Exactive plus mass spectrometer utilizing a top 15 methodology in which the 15 most intense peptide precursor ions were subjected to fragmentation. […]

CLK2 = biological target: T2, CLK2 (Homo sapiens, UniProt P49760); assay: as above; assay type: cell-based; conditions: 2 μM, 4 hours
T2 construct: endogenous in cells; host or cells: OVSAHO
Procedure: as §1, §2, §3, §4

PRCKD = biological target: T3, PRCKD (Homo sapiens, UniProt Q05655); assay: as above; assay type: cell-based; conditions: 2 μM, 4 hours
T3 construct: endogenous in cells; host or cells: OVSAHO
Procedure: as §1, §2, §3, §4

T1 sequence (Q2M2I8 whole entry): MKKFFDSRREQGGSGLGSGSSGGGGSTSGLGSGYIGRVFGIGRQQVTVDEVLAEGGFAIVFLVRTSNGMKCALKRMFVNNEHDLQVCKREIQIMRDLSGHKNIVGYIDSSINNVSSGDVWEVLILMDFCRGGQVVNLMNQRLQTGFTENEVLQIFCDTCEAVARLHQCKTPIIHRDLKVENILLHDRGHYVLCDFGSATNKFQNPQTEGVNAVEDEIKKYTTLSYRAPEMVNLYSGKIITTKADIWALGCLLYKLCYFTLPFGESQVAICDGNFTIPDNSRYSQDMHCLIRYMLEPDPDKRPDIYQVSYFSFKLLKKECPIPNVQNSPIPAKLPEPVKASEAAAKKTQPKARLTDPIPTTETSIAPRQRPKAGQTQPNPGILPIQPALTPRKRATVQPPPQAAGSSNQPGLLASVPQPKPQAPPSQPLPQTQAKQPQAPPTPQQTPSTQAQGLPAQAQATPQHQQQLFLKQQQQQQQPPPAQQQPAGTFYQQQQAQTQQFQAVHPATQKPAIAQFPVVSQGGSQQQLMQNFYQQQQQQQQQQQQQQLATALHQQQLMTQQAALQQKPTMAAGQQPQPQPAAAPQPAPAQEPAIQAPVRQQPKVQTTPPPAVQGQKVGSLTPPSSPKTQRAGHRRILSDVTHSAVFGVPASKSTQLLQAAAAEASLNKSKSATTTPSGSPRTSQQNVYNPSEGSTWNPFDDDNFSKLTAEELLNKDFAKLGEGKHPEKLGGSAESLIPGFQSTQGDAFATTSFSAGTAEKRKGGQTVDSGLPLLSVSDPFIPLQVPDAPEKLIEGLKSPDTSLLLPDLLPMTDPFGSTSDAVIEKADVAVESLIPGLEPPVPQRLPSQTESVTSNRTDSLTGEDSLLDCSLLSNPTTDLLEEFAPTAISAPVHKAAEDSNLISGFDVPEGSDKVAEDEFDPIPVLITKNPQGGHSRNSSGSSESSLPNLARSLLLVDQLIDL
T3 sequence (Q05655 whole entry): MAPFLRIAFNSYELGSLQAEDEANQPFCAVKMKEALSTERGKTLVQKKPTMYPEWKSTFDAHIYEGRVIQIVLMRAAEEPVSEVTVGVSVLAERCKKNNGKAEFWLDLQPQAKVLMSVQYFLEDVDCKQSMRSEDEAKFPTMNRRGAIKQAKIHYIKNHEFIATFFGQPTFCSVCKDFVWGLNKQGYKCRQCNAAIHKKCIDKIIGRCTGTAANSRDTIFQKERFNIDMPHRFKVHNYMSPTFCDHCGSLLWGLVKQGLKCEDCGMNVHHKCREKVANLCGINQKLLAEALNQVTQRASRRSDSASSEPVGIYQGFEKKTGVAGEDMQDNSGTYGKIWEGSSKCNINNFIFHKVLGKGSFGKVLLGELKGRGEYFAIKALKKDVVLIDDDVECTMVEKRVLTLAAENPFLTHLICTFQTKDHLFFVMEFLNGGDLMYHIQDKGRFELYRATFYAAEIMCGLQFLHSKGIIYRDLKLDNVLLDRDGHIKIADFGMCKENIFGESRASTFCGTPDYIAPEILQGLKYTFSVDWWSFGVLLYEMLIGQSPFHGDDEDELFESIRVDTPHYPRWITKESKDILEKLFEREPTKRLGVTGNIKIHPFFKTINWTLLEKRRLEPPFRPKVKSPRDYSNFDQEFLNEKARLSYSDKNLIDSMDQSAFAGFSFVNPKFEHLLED
T2 sequence (P49760 whole entry): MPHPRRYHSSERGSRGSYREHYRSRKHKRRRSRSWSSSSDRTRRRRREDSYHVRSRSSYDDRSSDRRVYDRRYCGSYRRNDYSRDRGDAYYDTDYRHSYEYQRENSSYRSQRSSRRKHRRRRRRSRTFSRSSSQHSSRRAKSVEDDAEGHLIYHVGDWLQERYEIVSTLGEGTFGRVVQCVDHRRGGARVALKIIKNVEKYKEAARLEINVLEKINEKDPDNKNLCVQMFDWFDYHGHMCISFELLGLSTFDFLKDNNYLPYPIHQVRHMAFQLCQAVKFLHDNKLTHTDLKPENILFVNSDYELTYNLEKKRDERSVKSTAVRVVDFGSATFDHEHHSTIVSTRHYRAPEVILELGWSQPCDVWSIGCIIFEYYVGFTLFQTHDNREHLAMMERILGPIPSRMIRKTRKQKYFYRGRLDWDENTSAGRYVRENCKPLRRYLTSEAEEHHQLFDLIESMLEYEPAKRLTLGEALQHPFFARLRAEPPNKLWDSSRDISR

Cc1[nH]nc2ccc(-c3cncc(OC[C@@H](N)Cc4ccccc4)c3)cc12 [A-674563]
cell viability (COV362): inhibited cell viability | MIB-binding of AAK1 (AAK1): inhibited | MIB-binding of CLK2 (CLK2): inhibited | MIB-binding of PRCKD (PRCKD): inhibited
